In the series the test system is CCRIS mutagenicity, Ames/micronucleus/aberration tests. As to the kind of experiment: CCRIS mutagenicity studies.
Where [1] appears, read: Test System: AMES SALMONELLA TYPHIMURIUM, Strain/Indicator: TA98, Metabolic Activation: NONE, Method: STANDARD PLATE.
The mark [2] stands for this setting: Test System: AMES SALMONELLA TYPHIMURIUM, Strain/Indicator: TA100, Metabolic Activation: NONE, Method: STANDARD PLATE.
Where [3] appears, read: Test System: AMES SALMONELLA TYPHIMURIUM, Strain/Indicator: TA1535, Metabolic Activation: NONE, Method: STANDARD PLATE.
Where [4] appears, read: Test System: AMES SALMONELLA TYPHIMURIUM, Strain/Indicator: TA1537, Metabolic Activation: NONE, Method: STANDARD PLATE.
Setting [5] is: Test System: AMES SALMONELLA TYPHIMURIUM, Strain/Indicator: TA98, Metabolic Activation: RAT, LIVER, S-9, AROCLOR 1254, Method: STANDARD PLATE.
[6] abbreviates: Test System: MOUSE LYMPHOMA, Strain/Indicator: L5178Y (TK+/TK-), Metabolic Activation: NONE, Method: SUSPENSION/PLATE.

Data on nine molecules can be found in PubChem BioAssay AID1259407 (Chemical Carcinogenesis Research Information System (CCRIS), 2018).

SMILES strings stand for the structures. Activity calls are given as the source filed them. The rule behind the calls is not given here.

For `O=[N+]([O-])c1ccc2nscc2c1`, the mutagenic call by setting is: under setting [1], “active; positive”; (Test System: AMES SALMONELLA TYPHIMURIUM, Strain/Indicator: TA98, Metabolic Activation: S-9, Method: STANDARD PLATE) “active; positive”; under setting [2], “active; positive”; (Test System: AMES SALMONELLA TYPHIMURIUM, Strain/Indicator: TA100, Metabolic Activation: S-9, Method: STANDARD PLATE) “active; positive”; under setting [3], “active; positive”; (Test System: AMES SALMONELLA TYPHIMURIUM, Strain/Indicator: TA1535, Metabolic Activation: S-9, Method: STANDARD PLATE) “active; positive”. The mutagenic call under setting [4] is “active; positive” and the mutagenic call (Test System: AMES SALMONELLA TYPHIMURIUM, Strain/Indicator: TA1537, Metabolic Activation: S-9, Method: STANDARD PLATE) was “active; positive”.

In the case of `COc1c(O)c2c(c3cc(C(=O)N4CCc5c4c(O)c(OC)c4[nH]c(C(=O)N6C[C@H]7C[C@@]78C6=CC(=O)c6[nH]cc(C)c68)cc54)[nH]c13)CCN2C(N)=O`, the mutagenic call reads like this: under setting [1], “inactive; negative”; under setting [5], “inactive; negative”; under setting [2], “inactive; negative”; (Test System: CHINESE HAMSTER V-79, Strain/Indicator: V-79/6-THIOGUANINE, Metabolic Activation: NONE) “active; positive”.

Regarding `CI`, the mutagenic call is, setting by setting: (Test System: AMES SALMONELLA TYPHIMURIUM, Strain/Indicator: TA98, Metabolic Activation: NONE, Method: GAS EXPOSURE) “inactive; negative”; (Test System: AMES SALMONELLA TYPHIMURIUM, Strain/Indicator: TA98, Metabolic Activation: RAT, LIVER, S-9, PHENOBARBITAL AND BETA--NAPHTHOFLAVONE, Method: GAS EXPOSURE) “inactive; negative”; (Test System: AMES SALMONELLA TYPHIMURIUM, Strain/Indicator: TA100, Metabolic Activation: NONE, Method: DESICCATOR) “active; positive”; (Test System: AMES SALMONELLA TYPHIMURIUM, Strain/Indicator: TA100, Metabolic Activation: NONE, Method: GAS EXPOSURE) “active; positive”; (Test System: AMES SALMONELLA TYPHIMURIUM, Strain/Indicator: TA100, Metabolic Activation: RAT, LIVER, S-9, PHENOBARBITAL AND BETA--NAPHTHOFLAVONE, Method: GAS EXPOSURE) “active; positive”; (Test System: AMES SALMONELLA TYPHIMURIUM, Strain/Indicator: TA1535, Metabolic Activation: NONE, Method: GAS EXPOSURE) “inactive; negative”. The mutagenic call is “inactive; negative” (Test System: AMES SALMONELLA TYPHIMURIUM, Strain/Indicator: TA1535, Metabolic Activation: RAT, LIVER, S-9, PHENOBARBITAL AND BETA--NAPHTHOFLAVONE, Method: GAS EXPOSURE); “active; positive” (Test System: AMES SALMONELLA TYPHIMURIUM, Strain/Indicator: TA1535, Metabolic Activation: RAT, LIVER, S-9, Method: SPOT); “inactive; negative” (Test System: AMES SALMONELLA TYPHIMURIUM, Strain/Indicator: TA1537, Metabolic Activation: NONE, Method: GAS EXPOSURE); “inactive; negative” (Test System: AMES SALMONELLA TYPHIMURIUM, Strain/Indicator: TA1537, Metabolic Activation: RAT, LIVER, S-9, PHENOBARBITAL AND BETA--NAPHTHOFLAVONE, Method: GAS EXPOSURE); “inactive; negative” (Test System: E. COLI, Strain/Indicator: WP2UVRA, Metabolic Activation: NONE, Method: GAS EXPOSURE); “inactive; negative” (Test System: E. COLI, Strain/Indicator: WP2UVRA, Metabolic Activation: RAT, LIVER, S-9, PHENOBARBITAL AND BETA--NAPHTHOFLAVONE, Method: GAS EXPOSURE). Besides, the mutagenic call reads like this: under setting [6], “active; positive”; (Test System: MOUSE LYMPHOMA, Strain/Indicator: L5178Y (TK+/TK-), Metabolic Activation: RAT, LIVER, S-9, AROCLOR 1254, Method: SUSPENSION/PLATE) “active; positive”.

`CCOP(=S)(OCC)SCCSCC`: the mutagenic call runs as follows: (End Point: In vivo micronucleus, Test System: Micronucleated polychromatic erythrocytes, Species: Mouse, Strain/Sex: Hsd/Win: NMRI/Male and female, Route: Intraperitoneal) “active; positive at 24 and 48 hr compared with the concurrent control, but equivocal com”; under setting [3], “active; positive”; (Test System: AMES SALMONELLA TYPHIMURIUM, Strain/Indicator: TA1535, Metabolic Activation: S-9 MIX, Method: STANDARD PLATE) “active; positive”; (Test System: E. coli polA test, Strain/Indicator: (K12)p3478/W3110, Metabolic Activation: None, Method: Plate test with 24 hr exposure) “inactive; negative”; (Test System: E. coli polA test, Strain/Indicator: (K12)p3478/W3110, Metabolic Activation: S-9, Method: Plate test with 24 hr exposure) “inactive; negative”; (Test System: UDS HUMAN FIBROBLASTS, Strain/Indicator: THY INCORP (NON-S-PHASE), Metabolic Activation: NONE, Method: LIQUID SCINTILLATION COUNTING) “active; positive”.

`Cn1c([N+](=O)[O-])nc2ccccc21`: the mutagenic call under setting [1] is “active; positive”.

For `O=[N+]([O-])C1CCCCC1`, the mutagenic call (Test System: UDS RAT HEPATOCYTES, Strain/Indicator: THY INCORP, Metabolic Activation: NONE) was “active; positive”.

Take `COc1cc(N)ccc1NC(C)=O`: the mutagenic call is “inactive; negative” under setting [1] and “active; positive” under setting [5].

`Nc1n[nH]c(=S)s1`: the mutagenic call reads like this: (Test System: AMES SALMONELLA TYPHIMURIUM, Strain/Indicator: TA98, Metabolic Activation: HAMSTER, LIVER, S-9, AROCLOR 1254, Method: STANDARD PLATE) “inactive; negative”; under setting [1], “inactive; negative”; under setting [5], “inactive; negative”; (Test System: AMES SALMONELLA TYPHIMURIUM, Strain/Indicator: TA100, Metabolic Activation: HAMSTER, LIVER, S-9, AROCLOR 1254, Method: STANDARD PLATE) “inactive; negative”; under setting [2], “inactive; negative”; (Test System: AMES SALMONELLA TYPHIMURIUM, Strain/Indicator: TA100, Metabolic Activation: RAT, LIVER, S-9, AROCLOR 1254, Method: STANDARD PLATE) “inactive; negative”. For the same molecule, the mutagenic call is “inactive; negative” (Test System: AMES SALMONELLA TYPHIMURIUM, Strain/Indicator: TA1535, Metabolic Activation: HAMSTER, LIVER, S-9, AROCLOR 1254, Method: STANDARD PLATE); “inactive; negative” under setting [3]; “inactive; negative” (Test System: AMES SALMONELLA TYPHIMURIUM, Strain/Indicator: TA1535, Metabolic Activation: RAT, LIVER, S-9, AROCLOR 1254, Method: STANDARD PLATE); “inactive; negative” (Test System: AMES SALMONELLA TYPHIMURIUM, Strain/Indicator: TA1537, Metabolic Activation: HAMSTER, LIVER, S-9, AROCLOR 1254, Method: STANDARD PLATE); “inactive; negative” under setting [4]; “inactive; negative” (Test System: AMES SALMONELLA TYPHIMURIUM, Strain/Indicator: TA1537, Metabolic Activation: RAT, LIVER, S-9, AROCLOR 1254, Method: STANDARD PLATE). For the same molecule, the mutagenic call (Test System: AMES SALMONELLA TYPHIMURIUM, Strain/Indicator: TA1538, Metabolic Activation: HAMSTER, LIVER, S-9, AROCLOR 1254, Method: STANDARD PLATE) is “inactive; negative”; the mutagenic call (Test System: AMES SALMONELLA TYPHIMURIUM, Strain/Indicator: TA1538, Metabolic Activation: NONE, Method: STANDARD PLATE) is “inactive; negative”; the mutagenic call (Test System: AMES SALMONELLA TYPHIMURIUM, Strain/Indicator: TA1538, Metabolic Activation: RAT, LIVER, S-9, AROCLOR 1254, Method: STANDARD PLATE) was “inactive; negative”; the mutagenic call under setting [6] was “active; positive. reevaluation of results: positive”; the mutagenic call (Test System: Mouse lymphoma, Strain/Indicator: L5178Y (tk+/tk-), Metabolic Activation: Rat, Liver, S-9, Aroclor 1254, Method: Suspension/plate) was “inactive; negative”.

As to `Cc1cccc(N=Nc2c(O)ccc3ccccc23)c1C`, the mutagenic call is, setting by setting: under setting [1], “inactive; negative”; (Test System: AMES SALMONELLA TYPHIMURIUM, Strain/Indicator: TA98, Metabolic Activation: RAT, LIVER, S-9, Method: STANDARD PLATE) “inactive; negative”; under setting [2], “inactive; negative”; (Test System: AMES SALMONELLA TYPHIMURIUM, Strain/Indicator: TA100, Metabolic Activation: RAT, LIVER, S-9, Method: STANDARD PLATE) “inactive; negative”.
